Measurements taken from article PMC7996082, “The translocator protein ligands as mitochondrial functional modulators for the potential anti-Alzheimer agents” (Journal of Enzyme Inhibition and Medicinal Chemistry, 2021).

Columns and labels:
[1] = MTT assay: HT22 cell viability with compound alone; assay type: cell-based, mouse; conditions: mouse, HT22 cells; HT22 cell viability after 24 h of treatment with 5 μM compound, no Aβ
Protocol: To a clear 96-well plate (FALCON), the cultured HT-22 cells were seeded in a number of 5,000 per well 24 h prior to the assay. A solution of each test compound (5 µM, 25 µL) was added to each well. After 24 h of incubation at 37 °C, the cells were treated with a 10 µL of MTT solution (3–(4,5-dimethylthiazol-2-yl)-2,5-diphenyltetrazolium bromide, Sigma-Aldrich), incubated for 2 h at 37 °C, and were treated with 135 µL of MTT solubilising solution (10% Triton-X 100 in isopropanol with 0.1 M HCl) for 2 h at 37 °C. The % values of cell viability were determined by using the optical density (OD) values at 560 nm, and normalised by taking the vehicle control (5 µM of DMSO) as […].

[2] = Liver microsomal stability; assay type: in vitro ADME; conditions: human, liver microsomes, 1 µM compound, 0.5 mg/mL microsomes, 30 min, 37 °C; read-out: Human Liver Microsomal Stability (% remaining after 30 min)
Protocol: Liver microsomes (human, dog, rat, and mouse; 0.5 mg/mL) were incubated with 1 µM of each test compound in the presence of potassium phosphate buffer (PPB) for 5 min at 37 °C. A solution of the NADPH regeneration system (#44332000, Oriental Yeast Co., Japan) was added to begin metabolic reactions of liver microsomes. The resulting mixtures were incubated for 30 min at 37 °C, and the reaction was terminated by the addition of a cold MeCN solution containing an internal standard (chlorpropamide). The mixture was separated by centrifugation (14,000 rpm for 5 min at 4 °C), and the supernatant was analysed by LC-MS/MS (Shimadzu Nexera XR system and TSQ vantage; Thermo Scientific).

CYP1A2 = biological target: T1, CYP1A2 (Homo sapiens, UniProt P05177); assay: CYP inhibition assay (Vivid CYP450 screening kit); assay type: in vitro ADME; conditions: 10 μM compound
T1 construct: purchased Invitrogen, Madison, WI, USA
T1 sequence (P05177 2-516 limits assumed): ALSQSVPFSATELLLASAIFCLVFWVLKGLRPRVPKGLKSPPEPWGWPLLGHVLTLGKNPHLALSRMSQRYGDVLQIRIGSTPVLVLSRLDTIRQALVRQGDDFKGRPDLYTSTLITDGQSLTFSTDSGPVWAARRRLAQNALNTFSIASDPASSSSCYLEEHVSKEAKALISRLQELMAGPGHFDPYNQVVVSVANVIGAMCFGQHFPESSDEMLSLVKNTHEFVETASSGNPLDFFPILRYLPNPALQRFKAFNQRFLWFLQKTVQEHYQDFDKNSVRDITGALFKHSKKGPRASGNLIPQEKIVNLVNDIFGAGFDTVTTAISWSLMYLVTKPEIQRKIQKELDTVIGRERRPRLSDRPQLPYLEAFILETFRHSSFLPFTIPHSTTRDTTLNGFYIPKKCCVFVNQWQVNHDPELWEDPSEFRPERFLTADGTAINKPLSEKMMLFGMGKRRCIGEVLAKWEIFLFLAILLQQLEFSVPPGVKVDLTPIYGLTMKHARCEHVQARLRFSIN
Protocol: (§1) Human CYP450 (CYP1A2, 2D6, 2C9, 2C19, and 3A4) activities were determined by using the Vivid® CYP450 screening kit (Invitrogen, Madison, WI, USA) in a clear 96-well plate. Five positive controls were used as 10 mM solutions in MeCN for five different CYP450 enzymes: CYP1A2 (α-naphthoflavone), CYP2D6 (quinidine), CYP2C9 (sulfaphenazole), CYP2C19 (lansoprazole), and CYP3A4 (ketoconazole). Each sample (test compounds, positive inhibition controls, and solvent controls) was added into each well with the Master Pre-Mix [CYP450 BACULOSOMES® Reagent (recombinant human CYP450 isozyme and rabbit NADPHP450 reductase) and Regeneration System (3.3 mM glucose-6-phosphate and 0.3 U/ml glucose-6-phosphate dehydrogenase in 100 mM potassium phosphate, pH 8.0)]. The mixture was incubated for 5 min at 37 °C, and the Vivid® CYP substrates and 0.1 mM NADP^+ buffer were added to initiate the CYP450 enzyme reaction. The % remaining activities of CYP450 were measured after 20 min by using a fluorescent plate reader (Flexstation® 3, Molecular Devices, USA).

CYP3A4 = biological target: T2, CYP3A4 (Homo sapiens, UniProt P08684); assay: CYP inhibition assay (Vivid CYP450 screening kit); assay type: in vitro ADME; conditions: 10 μM compound
T2 construct: purchased Invitrogen, Madison, WI, USA
T2 sequence (P08684 2-503 limits assumed): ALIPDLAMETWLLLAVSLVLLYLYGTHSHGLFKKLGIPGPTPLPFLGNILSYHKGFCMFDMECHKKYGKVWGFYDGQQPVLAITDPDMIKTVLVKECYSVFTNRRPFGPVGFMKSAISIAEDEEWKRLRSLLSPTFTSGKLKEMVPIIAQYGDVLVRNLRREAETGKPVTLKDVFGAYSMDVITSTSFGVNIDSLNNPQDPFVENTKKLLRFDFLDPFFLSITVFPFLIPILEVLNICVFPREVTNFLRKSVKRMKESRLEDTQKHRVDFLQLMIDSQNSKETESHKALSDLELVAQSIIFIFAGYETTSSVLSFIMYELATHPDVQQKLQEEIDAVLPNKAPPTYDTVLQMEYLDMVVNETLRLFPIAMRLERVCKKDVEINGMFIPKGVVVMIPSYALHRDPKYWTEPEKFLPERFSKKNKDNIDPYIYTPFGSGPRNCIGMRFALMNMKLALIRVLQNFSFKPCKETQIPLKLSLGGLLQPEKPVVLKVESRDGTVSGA
Protocol: as §1

CYP2C9 = biological target: T3, CYP2C9 (Homo sapiens, UniProt P11712); assay: CYP inhibition assay (Vivid CYP450 screening kit); assay type: in vitro ADME; conditions: 10 μM compound
T3 construct: purchased Invitrogen, Madison, WI, USA
T3 sequence (P11712 whole entry): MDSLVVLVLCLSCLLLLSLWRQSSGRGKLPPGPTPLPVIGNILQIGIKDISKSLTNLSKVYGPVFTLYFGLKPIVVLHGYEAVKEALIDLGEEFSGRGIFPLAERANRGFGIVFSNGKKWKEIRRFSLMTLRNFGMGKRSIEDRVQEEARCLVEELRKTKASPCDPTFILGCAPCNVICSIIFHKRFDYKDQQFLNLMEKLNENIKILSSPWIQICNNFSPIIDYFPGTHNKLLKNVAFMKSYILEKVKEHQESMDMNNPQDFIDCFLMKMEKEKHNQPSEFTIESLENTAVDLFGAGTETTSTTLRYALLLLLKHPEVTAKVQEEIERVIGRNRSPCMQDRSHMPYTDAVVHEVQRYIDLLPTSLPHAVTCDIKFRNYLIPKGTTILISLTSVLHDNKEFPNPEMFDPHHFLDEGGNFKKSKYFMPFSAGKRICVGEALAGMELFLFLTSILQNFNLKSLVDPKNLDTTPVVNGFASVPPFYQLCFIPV
Protocol: as §1

CYP2D6 = biological target: T4, CYP2D6 (Homo sapiens, UniProt P10635); assay: CYP inhibition assay (Vivid CYP450 screening kit); assay type: in vitro ADME; conditions: 10 μM compound
T4 construct: purchased Invitrogen, Madison, WI, USA
T4 sequence (P10635 whole entry): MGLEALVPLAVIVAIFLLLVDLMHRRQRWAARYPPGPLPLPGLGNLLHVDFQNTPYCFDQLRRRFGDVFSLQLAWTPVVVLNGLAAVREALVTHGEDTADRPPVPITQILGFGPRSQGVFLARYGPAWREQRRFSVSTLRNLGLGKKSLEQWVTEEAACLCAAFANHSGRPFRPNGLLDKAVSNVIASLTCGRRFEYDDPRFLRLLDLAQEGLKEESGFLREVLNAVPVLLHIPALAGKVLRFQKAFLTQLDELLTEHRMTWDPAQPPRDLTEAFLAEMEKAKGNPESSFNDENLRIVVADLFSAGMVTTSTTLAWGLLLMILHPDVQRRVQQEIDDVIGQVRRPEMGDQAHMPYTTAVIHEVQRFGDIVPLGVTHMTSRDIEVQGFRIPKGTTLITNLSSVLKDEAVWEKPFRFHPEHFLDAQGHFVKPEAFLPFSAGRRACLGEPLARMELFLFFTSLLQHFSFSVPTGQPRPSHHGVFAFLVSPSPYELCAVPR
Protocol: as §1

CYP2C19 = biological target: T5, CYP2C19 (Homo sapiens, UniProt P33261); assay: CYP inhibition assay (Vivid CYP450 screening kit); assay type: in vitro ADME; conditions: 10 μM compound
T5 construct: purchased Invitrogen, Madison, WI, USA
T5 sequence (P33261 whole entry): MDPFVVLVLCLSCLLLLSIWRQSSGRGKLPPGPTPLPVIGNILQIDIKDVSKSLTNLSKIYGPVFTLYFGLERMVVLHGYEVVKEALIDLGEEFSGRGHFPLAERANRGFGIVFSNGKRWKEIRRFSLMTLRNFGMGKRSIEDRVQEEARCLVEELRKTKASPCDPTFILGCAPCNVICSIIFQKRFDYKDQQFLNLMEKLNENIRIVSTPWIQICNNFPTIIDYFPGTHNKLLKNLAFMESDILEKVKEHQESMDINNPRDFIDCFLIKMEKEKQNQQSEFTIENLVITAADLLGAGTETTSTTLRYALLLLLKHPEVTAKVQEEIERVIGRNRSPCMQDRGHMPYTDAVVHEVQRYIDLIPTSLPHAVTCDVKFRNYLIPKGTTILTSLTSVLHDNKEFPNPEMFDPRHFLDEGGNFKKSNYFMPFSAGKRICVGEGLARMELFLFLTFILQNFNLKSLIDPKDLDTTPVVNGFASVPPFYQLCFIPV
Protocol: as §1

hERG channel = biological target: T6, hERG channel (Homo sapiens, UniProt Q12809); assay: hERG inhibition assay (automated patch-clamp, CHO-K1 Tet-On hERG cells); assay type: cell-based; conditions: patch-clamp, ± SD
T6 construct: host or cells: CHO-K1 Tet-On hERG cells
T6 sequence (Q12809 whole entry): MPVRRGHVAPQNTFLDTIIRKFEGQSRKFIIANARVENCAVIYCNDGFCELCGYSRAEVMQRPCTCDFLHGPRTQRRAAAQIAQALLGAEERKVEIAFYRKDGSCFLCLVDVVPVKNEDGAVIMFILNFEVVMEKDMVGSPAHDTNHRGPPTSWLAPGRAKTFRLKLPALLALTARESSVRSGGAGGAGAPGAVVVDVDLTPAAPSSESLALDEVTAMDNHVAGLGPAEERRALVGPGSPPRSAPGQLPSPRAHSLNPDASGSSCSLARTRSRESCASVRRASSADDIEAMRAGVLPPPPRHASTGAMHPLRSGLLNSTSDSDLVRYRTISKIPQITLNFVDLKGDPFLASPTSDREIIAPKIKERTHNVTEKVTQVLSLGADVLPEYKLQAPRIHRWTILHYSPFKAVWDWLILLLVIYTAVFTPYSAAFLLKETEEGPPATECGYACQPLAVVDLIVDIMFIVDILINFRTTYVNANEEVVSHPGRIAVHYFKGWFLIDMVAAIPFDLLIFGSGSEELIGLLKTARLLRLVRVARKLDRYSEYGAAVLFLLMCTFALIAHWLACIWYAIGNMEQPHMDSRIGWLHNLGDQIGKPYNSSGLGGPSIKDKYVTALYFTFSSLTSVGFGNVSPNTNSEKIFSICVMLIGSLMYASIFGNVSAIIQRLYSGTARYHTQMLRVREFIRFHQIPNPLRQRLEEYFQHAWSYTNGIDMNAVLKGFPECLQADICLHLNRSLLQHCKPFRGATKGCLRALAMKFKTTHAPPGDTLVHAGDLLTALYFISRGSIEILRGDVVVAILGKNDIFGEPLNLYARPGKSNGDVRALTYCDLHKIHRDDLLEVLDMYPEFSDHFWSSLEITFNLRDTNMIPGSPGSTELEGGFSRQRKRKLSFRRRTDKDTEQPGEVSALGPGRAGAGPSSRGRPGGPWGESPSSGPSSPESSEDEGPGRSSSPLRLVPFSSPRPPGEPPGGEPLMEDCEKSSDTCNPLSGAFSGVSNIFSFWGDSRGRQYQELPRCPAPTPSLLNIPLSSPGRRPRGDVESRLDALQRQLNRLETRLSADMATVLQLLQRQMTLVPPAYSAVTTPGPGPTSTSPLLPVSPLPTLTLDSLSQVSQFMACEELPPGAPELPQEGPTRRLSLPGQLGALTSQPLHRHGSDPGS
Protocol: For automated patch-clamp NPC-16 Patchliner (Nanion Technologies, München, Germany) recordings, CHO-K1 Tet-On hERG cells (IonGate Biosciences GmbH, Frankfurt, Germany) were plated into 100-mm cell culture dishes. Whole-cell currents were recorded with the intracellular solution containing: 50 mM KCl, 60 mM KF, 10 mM NaCl, 2 mM MgCl2, 20 mM EGTA and 10 mM HEPES (pH 7.2), and with the extracellular solution containing: 140 mM NaCl, 4 mM KCl, 2 mM CaCl2, 1 mM MgCl2, 5 mM Glucose and 10 HEPES (pH 7.4). To assist stable seal formations, the seal enhancer containing: 80 mM NaCl, 3 mM KCl, 35 mM CaCl2, 10 mM MgCl2 and 10 mM HEPES (pH 7.4) was used only at the seal formation step. Prior to the whole-cell recordings, the external seal enhancing solution was exchanged to the extracellular solution described above. hERG channel currents were recorded using the parallel EPC-10 patch-clamp amplifiers (HEKA Elektronik, Lambrecht/Pfalz, Germany), and low-pass filtered (10 kHz) with a 4-pole Bessel filter. Cell suspension and patch solutions were automatically added onto the four recording wells in the microfabricated disposable chip (NPC-16 Chip, Nanion Technologies, München, Germany). To obtain the inhibitory constants, hERG tail currents were evoked by repolarizing steps to −50 mV for 500 ms preceded by a 500-ms depolarisation potential of +20 mV at a holding potential of −80 mV with a 20-s sweep interval. Whole-cell currents were acquired and digitised at 5 kHz using Patchmaster (HEKA Elektronik, Lambrecht/Pfalz, Germany). The extracellular solution was exchanged to the extracellular solution containing each blocker via four pipette tips of NPC-16 Patchliner using a 4-fold volume of solution (40 µL) with a speed of 4 µL/s, and the exchanged blocker solution was applied for 100–200 s to the patch-clamped cells until blocker binding had reached equilibrium by monitoring hERG tail currents. Whole-cell recordings were analysed using the Patchmaster/Fitmaster (HEKA Elektronik, Lambrecht/Pfalz, Germany), IGOR Pro (WaveMetrics Inc., Portland, OR, USA), and the GraphPad Prism 4.0 (GraphPad Software, Inc., La Jolla, CA, USA) software.

Row | remaining at 0.5 h, 1 µM [2] | CYP450 (% remaining Activity at 10 μM) CYP1A2 (CYP1A2) | CYP450 (% remaining Activity at 10 μM) CYP3A4 (CYP3A4) | CYP450 (% remaining Activity at 10 μM) CYP2C9 (CYP2C9) | CYP450 (% remaining Activity at 10 μM) CYP2D6 (CYP2D6) | CYP450 (% remaining Activity at 10 μM) CYP2C19 (CYP2C19) | Structure (SMILES) | viability at 24 h, 5 µM [1] | IC50 (hERG channel)
1 |  |  |  |  |  |  | COc1ccc(-n2c(SCC(=O)Nc3ccc(F)c(F)c3)nc3sc4c(c3c2=O)CCN(C(C)=O)C4)cc1 [Compound 27] | 92% | 
2 |  |  |  |  |  |  | CCOc1ccc(-n2c(SCC(=O)NCCN3CCCCC3)nc3sc4c(c3c2=O)CCN(C(C)=O)C4)cc1 [Compound 28] | 71% | 
3 | < 10% | 117.3% | 49.3% | 30.9% | 91.7% | 23.3% | CCOc1ccc(-n2c(SCC(=O)N(C)Cc3ccccc3)nc3sc4c(c3c2=O)CCN(C(C)=O)C4)cc1 [Compound 32] | 88% | 6.53 ± 2.46 µM
4 |  |  |  |  |  |  | CCOc1ccc(-n2c(SCC(=O)N(CC)CC)nc3sc4c(c3c2=O)CCN(C(C)=O)C4)cc1 [Compound 38] | 77% | 
5 |  | 143.1% | 51.8% | 61.0% | 95.1% | 64.0% | CCCN(CCC)C(=O)CSc1nc2sc3c(c2c(=O)n1-c1ccc(OCC)cc1)CCN(C(C)=O)C3 [Compound 39] | 99% | 5.87 ± 1.18 µM
6 |  | 103.0% | 38.9% | 33.6% | 79.8% | 57.4% | CCCCN(CCCC)C(=O)CSc1nc2sc3c(c2c(=O)n1-c1ccc(OCC)cc1)CCN(C(C)=O)C3 [Compound 40] | 107% | 2.43 ± 0.48 µM
7 |  |  |  |  |  |  | CCCCNC(=O)CSc1nc2sc3c(c2c(=O)n1-c1ccc(OCC)cc1)CCN(C(C)=O)C3 [Compound 43] | 79% | 
8 | 4.3% | 110.5% | 89.1% | 14.9% | 107.0% | 23.2% | CCOc1ccc(-n2c(SCC(=O)N3CCN(Cc4ccccc4)CC3)nc3sc4c(c3c2=O)CCN(C(C)=O)C4)cc1 [Compound 45] | 113% | 
9 | 6.6% | 84.4% | 81.2% | 6.7% | 72.3% | 16.5% | CCOc1ccc(-n2c(SCC(=O)N3CCC(c4ccccc4)CC3)nc3sc4c(c3c2=O)CCN(C(C)=O)C4)cc1 [Compound 46] | 86% | 
10 | 2.2% | 81.5% | 66.2% | 15.6% | 64.0% | 15.0% | CCOc1ccc(-n2c(SCC(=O)N3CCC(Cc4ccccc4)CC3)nc3sc4c(c3c2=O)CCN(C(C)=O)C4)cc1 [Compound 47] | 94% | 
11 | 63.4% | 35.8% | 20.7% | 33.7% | 57.8% | 20.3% | CCOc1ccc(-n2c(SCC(=O)Nc3ccc(OC)c(OC)c3)nc3sc4c(c3c2=O)CCN(C)C4)cc1 [Compound 48] | 106% | 
12 |  |  |  |  |  |  | CCOc1ccc(-n2c(SCC(=O)Nc3ccc(Cl)cc3)nc3sc4c(c3c2=O)CCN(C)C4)cc1 [Compound 53] | 89% | 
13 |  |  |  |  |  |  | CCOc1ccc(-n2c(SCC(=O)NCc3ccc(C)cc3)nc3sc4c(c3c2=O)CCN(C)C4)cc1 [Compound 54] | 107% | 
14 |  | 71.9% | 30.9% | 44.5% | 89.2% | 30.5% | CCCN(CCC)C(=O)CSc1nc2sc3c(c2c(=O)n1-c1ccc(OCC)cc1)CCN(C)C3 [Compound 56] | 108% | 12.9 ± 3.03 µM
15 |  |  |  |  |  |  | CCCCN(CCCC)C(=O)CSc1nc2sc3c(c2c(=O)n1-c1ccc(OCC)cc1)CCN(C)C3 [Compound 57] | 110% | 
16 |  |  |  |  |  |  | CCn1c(SCC(=O)Nc2ccc(OC)c(OC)c2)nc2sc3c(c2c1=O)CCN(C(C)=O)C3 [Compound 58] | 99% | 
17 |  |  |  |  |  |  | CCCn1c(SCC(=O)Nc2ccc(OC)c(OC)c2)nc2sc3c(c2c1=O)CCN(C(C)=O)C3 [Compound 59] | 112% | 
18 |  |  |  |  |  |  | COc1ccc(NC(=O)CSc2nc3sc4c(c3c(=O)n2CC(C)C)CCN(C(C)=O)C4)cc1OC [Compound 60] | 96% | 
19 |  |  |  |  |  |  | CCCCn1c(SCC(=O)Nc2ccc(OC)c(OC)c2)nc2sc3c(c2c1=O)CCN(C(C)=O)C3 [Compound 61] | 97% | 
20 |  |  |  |  |  |  | COc1ccc(NC(=O)CSc2nc3sc4c(c3c(=O)n2C(C)C)CCN(C(C)=O)C4)cc1OC [Compound 62] | 94% | 
